Key:
[1] = system: Brown Planthopper (Nilaparvata lugens); assay: Test on controlling effects against brown planthopper (rice seedling dip); assay type: in vivo; conditions: rice seedling dipped about 10 seconds, second-third instar nymphs, 5th day after the release, 25° C.
Source text: Test on Controlling Effects Against Brown Planthopper (Nilaparvata lugens)
Rice seedling was dipped for about 10 seconds in an insecticidal solution adjusted to bring the concentration of the compound of the present invention to 200 ppm and then dried in air, its root was wrapped with a wet absorbent cotton, and the seedling was put into a test tube. Then, 10 second-third instar nymphs of Brown Planthopper were released therein, and the test tube was covered with a gauze and left in a constant temperature chamber at 25° C. with lightening. On the 5th day after the release, dead nymphs were counted, and the mortality was calculated by the following equation.
Mortality (%)=(number of dead insects/number of released insects)×100

[2] = system: Green Peach Aphid (Myzus persicae); assay: Test on controlling effects against green peach aphid (leaf dip); assay type: in vivo; conditions: foliar, 120 h, Japanese radish leaf dipped about 10 seconds, first instar nymphs, 5 days after the treatment, 25° C.
Source text: Test on Controlling Effects Against Green Peach Aphid (Myzus persicae)
A Japanese radish leaf was inserted in a test tube in which water was put, and about 20 first instar nymphs of green peach aphid were released on the leaf. On the next day, the number of nymphs parasitic on the leaf was counted, and then the leaf was dipped for about 10 seconds in an insecticidal solution adjusted to bring the concentration of the compound of the present invention to 200 ppm, dried in air and left in a constant temperature chamber at 25° C. with lightening. Dead nymphs were counted 5 days after the treatment, and the mortality was calculated by the following equation. The insects dropped from the leaf or presented toxic symptom were counted as dead insects.
Mortality (%)=(1−(number of survived insects/number of treated insects))×100

Q: With `CCON=C(c1ncc(C(F)(F)F)cc1Cl)n1cncn1` [Compound No. 10, [3-chloro-5-(trifluoromethyl)pyridin-2-yl](1H-1,2,4-triazol-1-yl)methanone O-oxime] as the compound, how does the mortality at 200 ppm [1] read?
A: Its mortality at 200 ppm is no less than 90%.

Q: What about the mortality at 200 ppm [2] of the same compound?
A: Its mortality at 200 ppm is no less than 90%.

Q: How did the mortality at 200 ppm [1] turn out when `CC(C)ON=C(c1ncc(C(F)(F)F)cc1Cl)n1cncn1` [Compound No. 13, [3-chloro-5-(trifluoromethyl)pyridin-2-yl](1H-1,2,4-triazol-1-yl)methanone O-isopropyl oxime] was run?
A: Its mortality at 200 ppm is no less than 90%.

Q: With `CCON=C(c1ncc(C(F)(F)F)cc1Cl)n1ccnc1` [compound 11] as the compound, how does the mortality at 200 ppm [1] read?
A: The mortality at 200 ppm was no less than 90%.

Q: And the mortality at 200 ppm [2]?
A: Its mortality at 200 ppm is no less than 90%.

Q: With `CCON=C(c1ncc(C(F)(F)F)cc1Cl)n1cnnc1` [compound 12] as the compound, how does the mortality at 200 ppm [1] read?
A: The mortality at 200 ppm was no less than 90%.

Q: What does the source list for `CON=C(c1ncc(C(F)(F)F)cc1Cl)n1cncn1` [compound 14]?
A: mortality at 200 ppm [1]: ≥ 90%; mortality at 200 ppm [2]: ≥ 90%

Q: With `CCON=C(c1cccc(C)n1)n1cncn1` [compound 23] as the compound, how does the mortality at 200 ppm [1] read?
A: Its mortality at 200 ppm is no less than 90%.

Q: How did the mortality at 200 ppm [1] turn out when `CCON=C(c1ccc(C(F)(F)F)cn1)n1cncn1` [compound 24] was run?
A: The mortality at 200 ppm was no less than 90%.

Q: With `CCON=C(c1ncccc1C(F)(F)F)n1cncn1` [compound 25] as the compound, how does the mortality at 200 ppm [1] read?
A: Its mortality at 200 ppm is no less than 90%.

Q: `CCON=C(c1cc(C(F)(F)F)ccn1)n1cncn1` [compound 26] was tested. Which mortality at 200 ppm [1] did it give?
A: The mortality at 200 ppm was no less than 90%.

Q: Which mortality at 200 ppm [1] does the source give for `CCON=C(c1ncc(C(F)(F)F)cc1Br)n1cncn1` [compound 31] here?
A: The mortality at 200 ppm was no less than 90%.

Q: What about the mortality at 200 ppm [2] of the same compound?
A: Its mortality at 200 ppm is no less than 90%.

Q: How did the mortality at 200 ppm [1] turn out when `FC(F)(F)c1cnc(C(=NOCC2CC2)n2cncn2)c(Cl)c1` [compound 32] was run?
A: The mortality at 200 ppm was no less than 90%.

Q: What about the mortality at 200 ppm [2] of the same compound?
A: The mortality at 200 ppm was no less than 90%.

Q: What does the source list for `CCON=C(c1ncc(C(F)(F)F)cc1C)n1cncn1` [compound 33, [3-methyl-5-(trifluoromethyl)pyridin-2-yl](1H-1,2,4-triazol-1-yl)methanone O-ethyl oxime]?
A: mortality at 200 ppm [1]: ≥ 90%; mortality at 200 ppm [2]: ≥ 90%

Q: For `CCON=C(c1cccc(C(F)(F)F)n1)n1cncn1` [compound 83], which mortality at 200 ppm [1] is on record?
A: Its mortality at 200 ppm is no less than 90%.

Q: Which mortality at 200 ppm [1] does the source give for `CCON=C(c1nc(C(F)(F)F)ccc1Cl)n1cncn1` [compound 84] here?
A: The mortality at 200 ppm was no less than 90%.
